Counter-ions that a name gives are not always drawn. Like-named read-outs stand apart in the source and are kept apart here.
Columns and labels:
[1] = system: αSMA; assay: αSMA intensity (fibroblast activation) in IPF patient-derived lung fibroblasts + TGFβ; format: cell-based, human; conditions: Homo sapiens, SMA, 1 μM + TGFβ, treated for 72 hours
Description: (§1) ImmunofluorescenceMicroscopy: Cells were plated into 96 well plates (Corning 3603) in their specific growth media and allowed to attach (8 hours). Media was then exchanged for the indicated conditions for each experiment. Cells were fixed in 3.7% formalin (Sigma-Aldrich), permeabilized in 0.25% Triton X-100 (Sigma-Aldrich) and then blocked with 1% BSA for 1 h. Cells or tissue sections were incubated overnight with mouse monoclonal antibody against αSMA (Sigma-Aldrich F3777), and/or a rabbit monoclonal antibody against YAP/TAZ (Cell Signaling D24E4) diluted 1:200 in PBS with 1% BSA. Cells were then washed and exposed to flourescence-conjugated secondary antibodies (Invitrogen) diluted 1:1000 and DAPI (Thermo Fisher Scientific). Images were taken with a Cytation5 (BioTek) microscope. For scoring αSMA positive cells (FIG. 3b), an observer blinded to the treatment conditions counted αSMA-positive cells using a visual threshold for bright fibrous staining; a minimum of 200 cells was counted for each condition. YAP/TAZ localization was quantified (FIG. 2, 6, 8) using Gen5 (Biotek) software. Images were taken at 4× magnification of both DAPI and YAP/TAZ staining. […] Quantification of double positive (YAP/TAZ and αSMA) cells from lung tissue sections (FIG. 4d) was performed similarly; however separate thresholds were established for both YAP/TAZ and αSMA. A minimum of 4000 cells was quantified for each mouse.

[2] = system: human dermal fibroblasts; assay: Profibrotic gene expression in human dermal fibroblasts +/- TGFβ; format: cell-based; conditions: 24 hours +/− 2 ng/mL TGFβ
Description: Human dermal fibroblasts treated for 24 hours+/−2 ng/mL TGFβ and D1 agonists: DHX and A68930 prior to RNA isolation. N=2. For all other in vitro experiments, cells were treated as indicated prior to RNA isolation using RNeasy Plus Mini Kit (Qiagen) according to manufacturer's instructions. Isolated RNA (250 ng) was then used to synthesize cDNA using SuperScript VILO (Invitrogen). Quantitative PCR was performed using FastStart Essential DNA Green Master (Roche) and analyzed using a LightCycler 96 (Roche). Data are expressed as a fold change by ΔΔCt relative to GAPDH. For in vivo experiments, tissue was immediately frozen, and stored at −80° C. RNA isolation, cDNA synthesis, and qPCR analysis were performed as above.

[3] = system: YAP/TAZ; assay: YAP/TAZ nuclear localization (immunofluorescence, automated imaging) in IPF patient-derived lung fibroblasts; format: cell-based, human
Description: 27A. […] IPF patient-derived lung fibroblasts cells treated 2 hours prior to fixation with diverse dopaminergic agonists (10 μM). N=4 different patient samples. % nuclear localization of YAP/TAZ was determined using automated imaging software. Scale bar represents 100 μm. 27C. cAMP measured in IPF patient-derived fibroblasts treated for 20 minutes with DHX. N=3. 27E.
as §1

[4] = system: αSMA+ stress fibers; assay: TGFβ-induced αSMA+ stress fiber formation; format: cell-based, human; conditions: TGFβ 48 hours, then dopamine 1 μM + TGFβ 24 hours
Description: ImmunofluorescenceMicroscopy: Cells were plated into 96 well plates (Corning 3603) in their specific growth media and allowed to attach (8 hours). Media was then exchanged for the indicated conditions for each experiment. Cells were fixed in 3.7% formalin (Sigma-Aldrich), permeabilized in 0.25% Triton X-100 (Sigma-Aldrich) and then blocked with 1% BSA for 1 h. Cells or tissue sections were incubated overnight with mouse monoclonal antibody against αSMA (Sigma-Aldrich F3777), and/or a rabbit monoclonal antibody against YAP/TAZ (Cell Signaling D24E4) diluted 1:200 in PBS with 1% BSA.

[5] = system: IPF patient derived fibroblasts; assay: Traction Force Microscopy of IPF patient derived fibroblasts; format: cell-based, human; conditions: IPF fibroblasts on 6.4 kPa matrices
Description: Traction Force Microscopy: Traction analysis was conducted as previously described. Briefly, polyacrylamide substrates with shear moduli of 6.4 kPa were prepared, and fluorescent sulfate-modified latex microspheres (0.2 μm, 505/515 ex/em) (FluoSpheres, Life Technologies) were conjugated to the gel surfaces after treatment with 1 mg ml^−1 of dopamine hydrochloride (Sigma-Aldrich) in 50 mM HEPES solution (pH 8.5). IPF patient derived fibroblasts were plated on the gels overnight and treated as indicated before traction force measurements. Images of gel surface-conjugated fluorescent beads were acquired for each cell before and after trypsinization using a Nikon ECLIPSE Ti microscope at ×10 magnification. Traction forces were estimated by measuring bead displacement fields and computing corresponding traction fields using TractionsForAll (freely distributed program that calculates 2-D tractions exerted by an adherent cell on its substrate).

[6] = system: cAMP; assay: cAMP Assay (cAMP-Glo) in lung fibroblasts; format: cell-based, human; conditions: IMR-90 lung fibroblasts (FIG. 31F-31H)
Description: cAMP Assay: IPF patient derived fibroblasts were plated in EMEM containing 10% FBS overnight. […] 20 minutes prior to cell lysis media was removed and cells were treated with “induction buffer” containing nonselective phosphodiesterase inhibitors and the indicated concentration of compound(s). Luminescence was measured on a Flexstation 3 (Molecular Devices) plate reader.

[7] = system: YAP/TAZ-TEAD interactions; conditions: Ref. 19; cited from earlier work
[8] = patient sample IPF-1, read-out: αSMA intensity (% of DMSO control) IPF-1
[9] = patient sample IPF-2, read-out: αSMA intensity (% of DMSO control) IPF-2
[10] = patient sample IPF-3, read-out: αSMA intensity (% of DMSO control) IPF-3
[11] = patient sample IPF-4, read-out: αSMA intensity (% of DMSO control) IPF-4

Compound: NCC1OC(c2ccccc2)Cc2c1ccc(O)c2O (stereo not shown) [A 68930•HCl]
- activity at 1 µM [1, 8]: 12.4%
- activity at 1 µM [1, 9]: 8.11%
- activity at 1 µM [1, 10]: 3.25%
- activity at 1 µM [1, 11]: 7.35%
- profibrotic gene expression in human dermal fibroblasts [2]: blocks profibrotic gene expression
- Nuclear localization (% of total cells) IPF-1 ([3]; patient sample IPF-1, 10 μM, treated 2 hours prior to fixation): 33.13 % of total cells
- Nuclear localization (% of total cells) IPF-2 ([3]; patient sample IPF-2, 10 μM, treated 2 hours prior to fixation): 30.59 % of total cells
- Nuclear localization (% of total cells) IPF-3 ([3]; patient sample IPF-3, 10 μM, treated 2 hours prior to fixation): 26.82 % of total cells
- Nuclear localization (% of total cells) IPF-4 ([3]; patient sample IPF-4, 10 μM, treated 2 hours prior to fixation): 10.26 % of total cells

Compound: NCCc1ccc(O)c(O)c1 [Dopamine•HCl, Dopamine]
- αSMA+ stress fiber formation in IPF-patient derived fibroblasts [4]: reverses αSMA+ stress fiber formation
- activity at 1 µM [1, 8]: 35.2%
- activity at 1 µM [1, 9]: 8.09%
- activity at 1 µM [1, 10]: 26.6%
- activity at 1 µM [1, 11]: 5.37%
- contractile forces (traction force microscopy) [5]: attenuates IPF fibroblast contractility
- YAP/TAZ nuclear localization, low density IPF fibroblasts ([3]; tissue culture plastic (FIG. 34A)): inhibits YAP/TAZ nuclear localization

Compound: CN1CCc2ccccc2Cc2[nH]c3ccccc3c2CC1 [LE-300]
- antagonism of DHX's elevation of cAMP, inhibition of YAP/TAZ nuclear localization and of YAP/TAZ target genes [6]: block DHX's elevation of cAMP

Compound: CN1CCc2cc(Cl)c(O)cc2[C@H]2c3ccccc3CC[C@@H]21 [SCH-39166]
- antagonism of DHX's elevation of cAMP, inhibition of YAP/TAZ nuclear localization and of YAP/TAZ target genes [6]: block DHX's elevation of cAMP

Compound: verteporfin
- effects in models of liver fibrosis [7]: limited beneficial effects

— patent US20240252463A1, “METHODS OF TREATING FIBROTIC PATHOLOGIES” (Mayo Foundation for Medical Education and Research, priority 2018, published 2024)
